Earlier results in US6830897B2, “High throughput screen for reducing drug candidate attrition” (Pfizer Inc., priority 2000, dated 2004).

Conditions: toxicities linked to formation of reactive metabolites; literature reference in brackets

SMILES	Toxicity (Ref.)
COc1ccc(O)cc1 [4-hydroxyanisole]	Hepato- toxicity (15)
CC(C)c1ccc(O)cc1 [4-isopropylphenol]	Circulatory collapse, death (16)
CC(=O)Nc1ccc(O)cc1 [Acetaminophen]	Hepato- toxicity (11)
NC(=O)N1c2ccccc2C=Cc2ccccc21 [Carbamazepine]	Hyper- sensitivity (13)
CN1CCN(C2=Nc3cc(Cl)ccc3Nc3ccccc32)CC1 [Clozapine]	Neutrophil Cyto-toxicity (12)
COc1ccc2c(c1)c(CC(=O)O)c(C)n2C(=O)c1ccc(Cl)cc1 [Indomethacin]	Neutrophil toxicity (14)
O=C1NC(=O)C(c2ccccc2)(c2ccccc2)N1 [Phenytoin]	Hepato- toxicity (18)
CCCC(CCC)C(=O)O [Valproic acid]	Hepato- toxicity (17)
Cc1cccc(O)c1 [m-Cresol]	Circulatory collapse, death (16)
